In patent US20130252930A1 (BIOMARIN PHARMACEUTICAL INC., priority 2010, published 2013):
Read-outs that look alike come from different tables or passages of the source.

Target: T1, CYP17 (human testicular microsome) (Homo sapiens, UniProt P05093)
T1 construct: using microsomal fraction from human testis (Celsis Cat #S00110) as the enzyme source; tissue Celsis S00110; host or cells: human testis microsomal fraction
T1 sequence (P05093 1-508): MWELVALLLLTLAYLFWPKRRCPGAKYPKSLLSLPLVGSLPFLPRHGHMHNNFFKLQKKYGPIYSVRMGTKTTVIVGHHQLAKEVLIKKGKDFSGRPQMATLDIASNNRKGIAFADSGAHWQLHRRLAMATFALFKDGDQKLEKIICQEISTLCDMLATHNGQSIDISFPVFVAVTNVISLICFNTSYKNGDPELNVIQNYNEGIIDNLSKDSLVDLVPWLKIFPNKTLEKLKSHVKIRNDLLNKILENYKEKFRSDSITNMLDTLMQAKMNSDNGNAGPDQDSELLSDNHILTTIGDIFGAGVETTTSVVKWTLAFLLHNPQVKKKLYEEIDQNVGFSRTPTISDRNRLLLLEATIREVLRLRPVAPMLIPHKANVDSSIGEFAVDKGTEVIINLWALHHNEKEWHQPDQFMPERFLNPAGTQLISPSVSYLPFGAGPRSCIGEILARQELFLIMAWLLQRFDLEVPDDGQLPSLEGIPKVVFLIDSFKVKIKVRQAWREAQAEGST
Assay: CYP17 enzymatic assay (% inhibition at 1 nM) (Biological Example 12)
Format: biochemical

[1] = compound at 1 nM, read-out: CYP17 enzymatic assay % inhibition at 1 nM (Biological Example No. 12)
[2] = compound at 1 nM, read-out: Biological Example No. 12: CYP17 enzymatic assay % inhibition at 1 nM
[3] = test compound at 1 nM, read-out: CYP17 enzymatic assay percent inhibition at 1 nM (Biological Example No. 12)

Work on `CCNC(=O)NC1CC[C@@]2(C)C(=CC[C@@H]3[C@@H]2CC[C@]2(C)C(c4cncc(OC)c4)=CC[C@@H]32)C1` (stereo partly drawn) [Compound 234, 1-ethyl-3-((10R,13S)-17-(5-methoxypyridin-3-yl)-10,13-dimethyl-2,3,4,7,8,9,10,11,12,13,14,15-dodecahydro-1H-cyclopenta[a]phenanthren-3-yl)urea] yielded an inhibition at 0.001 µM [1] of 10 to 50%.
`C[C@]12CCC(NC(=O)c3nccs3)CC1=CCC1C2CC[C@]2(C)C(n3ccnc3)=CCC12` (stereo partly drawn) [Compound 241, N-((10R,13S)-17-(1H-imidazol-1-yl)-10,13-dimethyl-2,3,4,7,8,9,10,11,12,13,14,15-dodecahydro-1H-cyclopenta[a]phenanthren-3-yl)thiazole-2-carboxamide] showed an inhibition at 0.001 µM [1] of 10 to 50%.
With `CCNC(=O)N[C@@H]1CC[C@@]2(C)C(CC[C@@H]3[C@@H]2CC[C@]2(C)C(n4ccnc4)=CC[C@@H]32)C1` (stereo partly drawn) [Compound 247, 1-((3R,10S,13S)-17-(1H-imidazol-1-yl)-10,13-dimethyl-2,3,4,5,6,7,8,9,10,11,12,13,14,15-tetradecahydro-1H-cyclopenta[a]phenanthren-3-yl)-3-ethylurea] the inhibition at 0.001 µM [1] was > 50%.
With `C[C@]12CC[C@H]3[C@@H](CC(=O)C45CC4CC[C@]35C)C1=CC=C2c1cccnc1` (stereo partly drawn) [Compound 250, (3aR,5aS)-3a,5a-dimethyl-6-(pyridin-3-yl)-1a,2,3,3a,3b,4,5,5a,8b,9-decahydrocyclopenta[a]cyclopropa[2,3]cyclopenta[1,2-f]naphthalen-10(1H)-one] the inhibition at 0.001 µM [1] was > 50%.
Compound `C[C@]12CC[C@H]3[C@@H](CC(Nc4nccs4)C45CC4CC[C@]35C)[C@@H]1CC=C2c1cccnc1` (stereo partly drawn) [Compound 251, N-((3aR,5aS)-3a,5a-dimethyl-6-(pyridin-3-yl)-1,1a,2,3,3a,3b,4,5,5a,8,8a,8b,9,10-tetradecahydrocyclopenta[a]cyclopropa[2,3]cyclopenta[1,2-f]naphthalen-10-yl)thiazol-2-amine] has an inhibition at 0.001 µM [1] of 10 to 50%.
In the case of `C[C@]12CC[C@@](O)(C3CC3)CC1CC[C@@H]1[C@@H]2CC[C@]2(C)C(c3cccnc3)=CC[C@@H]12` (stereo partly drawn) [Compound 252, (3S,10S,13S)-3-cyclopropyl-10,13-dimethyl-17-(pyridin-3-yl)-2,3,4,5,6,7,8,9,10,11,12,13,14,15-tetradecahydro-1H-cyclopenta[a]phenanthren-3-ol], the inhibition at 0.001 µM [1] is reported as 10 to 50%.
For `C[C@@]1(O)CC[C@@]2(C)C(CCC3C2CC[C@]2(C)C(c4cccnc4)=CCC32)C1` (stereo partly drawn) [Compound 253, (3R,10S,13S)-3,10,13-trimethyl-17-(pyridin-3-yl)-2,3,4,5,6,7,8,9,10,11,12,13,14,15-tetradecahydro-1H-cyclopenta[a]phenanthren-3-ol], the inhibition at 0.001 µM [1] was < 10%.
In the case of `C#C[C@@]1(O)CC[C@@]2(C)C(CCC3C2CC[C@]2(C)C(c4cccnc4)=CCC32)C1` (stereo partly drawn) [Compound 257, (3R,10S,13S)-3-ethynyl-10,13-dimethyl-17-(pyridin-3-yl)-2,3,4,5,6,7,8,9,10,11,12,13,14,15-tetradecahydro-1H-cyclopenta[a]phenanthren-3-ol], the inhibition at 0.001 µM [1] is reported as 10 to 50%.
With `C[C@@]1(O)CC[C@@]2(C)C(CCC3C4=CC=C(c5cccnc5)[C@@]4(C)CCC32)C1` (stereo partly drawn) [Compound 260, (3R,10S,13S)-3,10,13-trimethyl-17-(pyridin-3-yl)-2,3,4,5,6,7,8,9,10,11,12,13-dodecahydro-1H-cyclopenta[a]phenanthren-3-ol] the inhibition at 0.001 µM [1] was < 10%.
`C[C@]1(O)CC[C@@]2(C)C(CCC3C2CC[C@]2(C)C(c4cncc(Cl)c4)=CCC32)C1` (stereo partly drawn) [Compound 265, (3S,10S,13S)-17-(5-chloropyridin-3-yl)-3,10,13-trimethyl-2,3,4,5,6,7,8,9,10,11,12,13,14,15-tetradecahydro-1H-cyclopenta[a]phenanthren-3-ol] was tested, and the inhibition at 0.001 µM [2] was < 10%.
With `C[C@@]1(O)CC[C@@]2(C)C(CCC3C2CC[C@]2(C)C(c4cncc(Cl)c4)=CCC32)C1` (stereo partly drawn) [Compound 266, (3R,10S,13S)-17-(5-chloropyridin-3-yl)-3,10,13-trimethyl-2,3,4,5,6,7,8,9,10,11,12,13,14,15-tetradecahydro-1H-cyclopenta[a]phenanthren-3-ol] the inhibition at 0.001 µM [2] was 10 to 50%.
With `C[C@@]1(O)CC[C@@]2(C)C(=CCC3C2CC[C@]2(C)C(c4cccnc4)=CCC32)C1` (stereo partly drawn) [Compound 267, (3R,10R,13S)-3,10,13-trimethyl-17-(pyridin-3-yl)-2,3,4,7,8,9,10,11,12,13,14,15-dodecahydro-1H-cyclopenta[a]phenanthren-3-ol] the inhibition at 0.001 µM [3] was > 50%.
In the case of `C[C@]1(O)CC[C@@]2(C)C(=CCC3C2CC[C@]2(C)C(c4cccnc4)=CCC32)C1` (stereo partly drawn) [Compound 268, (3S,10R,13S)-3,10,13-trimethyl-17-(pyridin-3-yl)-2,3,4,7,8,9,10,11,12,13,14,15-dodecahydro-1H-cyclopenta[a]phenanthren-3-ol], the inhibition at 0.001 µM [3] is reported as > 50%.
`C[C@]1(O)CC[C@@]2(C)C(=CCC3C2CC[C@]2(C)C(c4cncc(F)c4)=CCC32)C1` (stereo partly drawn) [Compound 270, (3S,10R,13S)-17-(5-fluoropyridin-3-yl)-3,10,13-trimethyl-2,3,4,7,8,9,10,11,12,13,14,15-dodecahydro-1H-cyclopenta[a]phenanthren-3-ol] was tested, and the inhibition at 0.001 µM [3] was 10 to 50%.
`C[C@]12CC[C@H]3[C@@H](CC=C4C[C@@H](O)CC[C@@]43C)C1=CC=C2c1cncc(Cl)c1` [Compound 273, (3S,10R,13S)-17-(5-chloropyridin-3-yl)-10,13-dimethyl-2,3,4,7,8,9,10,11,12,13-decahydro-1H-cyclopenta[a]phenanthren-3-ol] was tested, and the inhibition at 0.001 µM [2] was 10 to 50%.
In the case of `C[C@]12CC[C@H](O)CC1=CCC1C2CC[C@]2(C)C(c3cncc(C#N)c3)=CCC12` (stereo partly drawn) [Compound 275, 5-((3S,10R,13S)-3-hydroxy-10,13-dimethyl-2,3,4,7,8,9,10,11,12,13,14,15-dodecahydro-1H-cyclopenta[a]phenanthren-17-yl)nicotinonitrile], the inhibition at 0.001 µM [2] is reported as 10 to 50%.
For `Cc1cnc(F)c(C2=CCC3C4CC=C5C[C@@H](O)CC[C@]5(C)C4CC[C@]23C)c1` (stereo partly drawn) [Compound 277, (3S,10R,13S)-17-(2-fluoro-5-methylpyridin-3-yl)-10,13-dimethyl-2,3,4,7,8,9,10,11,12,13,14,15-dodecahydro-1H-cyclopenta[a]phenanthren-3-ol], the inhibition at 0.001 µM [2] was 10 to 50%.
In the case of `Cc1cc(C2=CCC3C4CC=C5C[C@@H](O)CC[C@]5(C)C4CC[C@]23C)cnc1F` (stereo partly drawn) [Compound 278, (3S,10R,13S)-17-(6-fluoro-5-methylpyridin-3-yl)-10,13-dimethyl-2,3,4,7,8,9,10,11,12,13,14,15-dodecahydro-1H-cyclopenta[a]phenanthren-3-ol], the inhibition at 0.001 µM [2] is reported as < 10%.
With `CC(=O)Nc1cncc(C2=CCC3C4CC=C5C[C@@H](O)CC[C@]5(C)C4CC[C@]23C)c1` (stereo partly drawn) [Compound 281, N-(5-((3S,10R,13S)-3-hydroxy-10,13-dimethyl-2,3,4,7,8,9,10,11,12,13,14,15-dodecahydro-1H-cyclopenta[a]phenanthren-17-yl)pyridin-3-yl)acetamide] the inhibition at 0.001 µM [3] was < 10%.
For `C[C@]12CC[C@H](O)CC1=CCC1C2CC[C@]2(C)C(c3cncc(NS(=O)(=O)C(F)(F)F)c3)=CCC12` (stereo partly drawn) [Compound 282, 1,1,1-trifluoro-N-(5-((3S,10R,13S)-3-hydroxy-10,13-dimethyl-2,3,4,7,8,9,10,11,12,13,14,15-dodecahydro-1H-cyclopenta[a]phenanthren-17-yl)pyridin-3-yl)methanesulfonamide], the inhibition at 0.001 µM [2] was < 10%.
With `C[C@]12CC[C@H](O)CC1=CCC1C2CC[C@]2(C)C(c3cncc(NS(C)(=O)=O)c3)=CCC12` (stereo partly drawn) [Compound 284, N-(5-((3S,10R,13S)-3-hydroxy-10,13-dimethyl-2,3,4,7,8,9,10,11,12,13,14,15-dodecahydro-1H-cyclopenta[a]phenanthren-17-yl)pyridin-3-yl)methanesulfonamide] the inhibition at 0.001 µM [2] was < 10%.
For `CC1(C)C(=O)CC[C@@]2(C)C1=CC[C@@H]1[C@@H]2CC[C@]2(C)C(c3cccnc3)=CC[C@@H]12` [Compound 293, (10R,13S)-4,4,10,13-tetramethyl-17-(pyridin-3-yl)-4,7,8,9,10,11,12,13,14,15-decahydro-1H-cyclopenta[a]phenanthren-3(2H)-one], the inhibition at 0.001 µM [1] was < 10%.
For `CC1(C)C2=CC[C@@H]3[C@H](CC[C@]4(C)C(c5cccnc5)=CC[C@@H]34)[C@@]2(C)CCC1O` (stereo partly drawn) [Compound 294, (10R,13S)-4,4,10,13-tetramethyl-17-(pyridin-3-yl)-2,3,4,7,8,9,10,11,12,13,14,15-dodecahydro-1H-cyclopenta[a]phenanthren-3-ol], the inhibition at 0.001 µM [1] was < 10%.
`CC1C(O)CC[C@@]2(C)C1CCC1C2CC[C@]2(C)C(c3cncc(F)c3)=CCC12` (stereo partly drawn) [Compound 305, (10R,13S)-17-(5-fluoropyridin-3-yl)-4,10,13-trimethyl-2,3,4,5,6,7,8,9,10,11,12,13,14,15-tetradecahydro-1H-cyclopenta[a]phenanthren-3-ol] was tested, and the inhibition at 0.001 µM [2] was < 10%.
`CC1C(O)CC[C@@]2(C)C1CCC1C2CC[C@]2(C)C(c3cncc(C(F)F)c3)=CCC12` (stereo partly drawn) [Compound 306, (10R,13S)-17-(5-(difluoromethyl)pyridin-3-yl)-4,10,13-trimethyl-2,3,4,5,6,7,8,9,10,11,12,13,14,15-tetradecahydro-1H-cyclopenta[a]phenanthren-3-ol] was tested, and the inhibition at 0.001 µM [2] was < 10%.
